{"source": "paper PMC5548886", "about": "(Cancer Medicine, 2017)", "origin": "cited, not measured here", "key": {"pERK": {"system": "pERK", "parameters": "method as in PMID 20823850", "settings": "at the recommended phase II dose; cited from earlier work"}, "[1]": {"system": "advanced or metastatic melanoma", "settings": "phase II trial; cited from earlier work"}}}
{"compound": "CCCS(=O)(=O)Nc1ccc(F)c(C(=O)c2c[nH]c3ncc(-c4ccc(Cl)cc4)cc23)c1F", "note": "[vemurafenib]", "values": [{"measurement": "pERK suppression", "setting": "pERK", "value": "over 80%"}]}
{"compound": "CNC(=O)c1ccccc1Sc1ccc2c(/C=C/c3ccccn3)n[nH]c2c1", "note": "[axitinib]", "values": [{"measurement": "response rate", "setting": "[1]", "value": "~ 19%"}]}
